Experimental data taken from patent US11691949B2, “Quinoline sulfonamide compounds and their use as antibacterial agents” (OTAGO INNOVATION LIMITED, priority 2017, dated 2023).
Values after ≈ are worked out from the molar mass of the structure shown. Where two headings read alike, the source gives them in different places.

Legend:
Format in all cases: cell-based
S. uberis ATCC 19436 = experiment: MIC by broth microdilution, S. uberis; settings: Streptococcus uberis, read-out: S. uberis ATCC 19436 MIC
Procedure: (§1) Antibacterial susceptibility testing was performed in triplicate (biological) by measuring minimum inhibitory concentrations (MICs) by broth microdilution in 96-well flat bottom microtiter plates (ThermoFisher Scientific, New Zealand). S. uberis ATCC 19436, S. aureus ATCC 6538, or E. coli ATCC 10596 cells grown overnight were diluted to an OD600 of approximately 0.025, so that the final concentration of cells in the MIC assay was approximately 5×10^5 cfu/mL in media as follows: S. uberis; Todd Hewitt Broth (THB), S. aureus; Tryptic Soy Broth (TSB) and Cation Adjusted Muller Hinton Broth (CAMHB), and E. coli; Lysogeny Borth (LB) and CAMHB, before being dispensed into microtiter wells. As required additional sterile Zinc Sulphate (Heptahydrate) was supplemented into the media, so the final concentration was 50 μM. Test compounds were added to starting wells and two-fold serial dilutions were undertaken to generate a range of inhibitor concentrations at a final volume of 200 μl. Media and test compound-free (untreated) controls were included in each microtiter plate in triplicate. After 24 h incubation at 37° C. and 200 rpm, the OD600 of wells were read using a Varioskan Flash plate reader (ThermoFisher Scientific, New Zealand). The MIC was reported as the lowest concentration of the test compound for which no growth occurred, as determined by OD600 readings. The minimum bactericidal concentration (MBC) was determined using the Miles-Misra drop-plate method to measure the viability of cells in response to test compound challenge.

E. coli ATCC 10596 = experiment: MIC by broth microdilution, E. coli; settings: Escherichia coli, read-out: E. coli ATCC 10536 MIC
Procedure: as §1

S. aureus ATCC 6538 = experiment: MIC by broth microdilution, S. aureus; settings: Staphylococcus aureus, read-out: S. aureus ATCC 6538 MIC
Procedure: as §1

[1] = ATCC 10536 / ATCC 10596, No Zinc
[2] = ATCC 10536 / ATCC 10596, Zinc (50 μM)

Compound | MIC (S. uberis ATCC 19436; ATCC19436, No Zinc) | MIC (S. uberis ATCC 19436; ATCC19436, Zinc (50 μM)) | MIC (E. coli ATCC 10596; [1]) | MIC (E. coli ATCC 10596; [2]) | MIC (S. aureus ATCC 6538; ATCC6538, No Zinc) | MIC (S. aureus ATCC 6538; ATCC6538, Zinc (50 μM))
CN(C)Cc1ccc2cccc(NS(=O)(=O)c3ccsc3)c2n1 [ZDR081, N-(2-((Dimethylamino)methyl)quinolin-8-yl)thiophene-3-sulfonamide] | 256 µg/mL (≈ 737 µM) | 0.25 µg/mL (≈ 0.719 µM) | > 256 µg/mL | > 256 µg/mL | > 256 µg/mL | > 256 µg/mL
Cc1noc(C)c1S(=O)(=O)Nc1cccc2ccc(CN(C)C)nc12 [ZDR082, N-(2-((Dimethylamino)methyl)quinolin-8-yl)-3,5-dimethylisoxazole-4-sulfonamide] | > 256 µg/mL | 0.125 µg/mL (≈ 0.347 µM) | > 256 µg/mL | > 256 µg/mL | > 256 µg/mL | > 256 µg/mL
CN(C)Cc1ccc2cccc(NS(=O)(=O)c3cccc(Cl)c3)c2n1 [ZDR084, 3-Chloro-N-(2-((dimethylamino)methyl)quinolin-8-yl)benzenesulfonamide] | 128 µg/mL (≈ 341 µM) | 0.0625 µg/mL (≈ 0.166 µM) | 256 µg/mL (≈ 681 µM) | > 256 µg/mL | 256 µg/mL (≈ 681 µM) | > 256 µg/mL
CN(C)Cc1ccc2cccc(NS(=O)(=O)c3cccc(OC(F)(F)F)c3)c2n1 [ZDR085, N-(2-((Dimethylamino)methyl)quinolin-8-yl)-3-(trifluoromethoxy)benzenesulfonamide] | 128 µg/mL (≈ 301 µM) | < 0.125 µg/mL | 256 µg/mL (≈ 602 µM) | > 256 µg/mL | 256 µg/mL (≈ 602 µM) | > 256 µg/mL
O=S(=O)(Nc1cccc2ccc(CNC3CC3)nc12)c1ccc(C(F)(F)F)cc1 [ZDR086, N-(2-((Cyclopropylamino)methyl)quinolin-8-yl)-4-(trifluoromethyl)benzenesulfonamide] | 64 µg/mL (≈ 152 µM) | 0.25 µg/mL (≈ 0.593 µM) | 128 µg/mL (≈ 304 µM) | 256 µg/mL (≈ 607 µM) | 64 µg/mL (≈ 152 µM) | > 256 µg/mL
O=S(=O)(Nc1cccc2ccc(CNCC3CC3)nc12)c1ccc(C(F)(F)F)cc1 [ZDR087, N-(2-(((Cyclopropylmethyl)amino)methyl)quinolin-8-yl)-4-(trifluoromethyl)benzenesulfonamide] | 256 µg/mL (≈ 588 µM) | 0.25 µg/mL (≈ 0.574 µM) | 256 µg/mL (≈ 588 µM) | > 256 µg/mL | 128 µg/mL (≈ 294 µM) | > 256 µg/mL
O=S(=O)(Nc1cccc2ccc(CN3CCSCC3)nc12)c1ccc(C(F)(F)F)cc1 [ZDR088, N-(2-(Thiomorpholinomethyl)quinolin-8-yl)-4-(trifluoromethyl)benzenesulfonamide] | > 256 µg/mL | 0.0625 µg/mL (≈ 0.134 µM) | > 256 µg/mL | > 256 µg/mL | > 256 µg/mL | > 256 µg/mL
CN1CCN(Cc2ccc3cccc(NS(=O)(=O)c4ccc(C(F)(F)F)cc4)c3n2)CC1 [ZDR089, N-(2-((4-Methylpiperazin-1-yl)methyl)quinolin-8-yl)-4-(trifluoromethyl)benzenesulfonamide] | 64 µg/mL (≈ 138 µM) | 0.5 µg/mL (≈ 1.08 µM) | > 256 µg/mL | > 256 µg/mL | 256 µg/mL (≈ 551 µM) | 128 µg/mL (≈ 276 µM)
O=S(=O)(Nc1cccc2ccc(CNCC(O)CO)nc12)c1ccc(C(F)(F)F)cc1 (stereo not drawn) [ZDR093, N-(2-(((2,3-Dihydroxypropyl)amino)methyl)quinolin-8-yl)-4-(trifluoromethyl)benzenesulfonamide] | 64 µg/mL (≈ 141 µM) | 16 µg/mL (≈ 35.1 µM) | 256 µg/mL (≈ 562 µM) | > 256 µg/mL | 64 µg/mL (≈ 141 µM) | 128 µg/mL (≈ 281 µM)
O=S(=O)(Nc1cccc2ccc(CN(CCO)CCO)nc12)c1ccc(C(F)(F)F)cc1 [ZDR094, N-(2-((Bis(2-hydroxyethyl)amino)methyl)quinolin-8-yl)-4-(trifluoromethyl)benzenesulfonamide] | 32 µg/mL (≈ 68.2 µM) | 4 µg/mL (≈ 8.52 µM) | 256 µg/mL (≈ 545 µM) | 256 µg/mL (≈ 545 µM) | 62 µg/mL (≈ 132 µM) | 32 µg/mL (≈ 68.2 µM)
O=S(=O)(Nc1cccc2ccc(CN(Cc3ccccn3)Cc3ccccn3)nc12)c1ccc(C(F)(F)F)cc1 [ZDR096, N-(2-((Bis(pyridin-2-ylmethyl)amino)methyl)quinolin-8-yl)-4-(trifluoromethyl)benzenesulfonamide] | 64 µg/mL (≈ 114 µM) | 4 µg/mL (≈ 7.1 µM) | > 256 µg/mL | > 256 µg/mL | > 256 µg/mL | > 256 µg/mL
